System: 349418-098-R-PDC spheroids, viability, % test/control
Assay: Anticancer human tumor 349418-098-R-PDC patient-derived lung adenocarcinoma cell line growth inhibition [IpAb]
Conditions: spheroids with HUVEC and MSC; for IC50: curve of first compound; for viability, T/C: stronger effect = lower value
Procedure, shortened: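 Combinations with ipatasertib or abemaciclib were tested on tumour spheroids holding HUVEC (25%) and MSC (15%) alongside 60% malignant cells. Top concentration was at or near clinical Cmax (10 microM if undefined), descending in half-log steps.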

[1] = second compound 0.1 µM, first compound 0.0316 µM
[2] = second compound 0.1 µM, first compound 0.1 µM
[3] = second compound 0.1 µM, first compound 0.316 µM
[4] = second compound 0.1 µM, first compound 1 µM
[5] = second compound 0.1 µM, first compound 3.16 µM
[6] = second compound 0.1 µM, first compound 10 µM
[7] = second compound 0.316 µM, first compound 0.0316 µM
[8] = second compound 0.316 µM, first compound 0.1 µM
[9] = second compound 0.316 µM, first compound 0.316 µM
[10] = second compound 0.316 µM, first compound 1 µM
[11] = second compound 0.316 µM, first compound 3.16 µM
[12] = second compound 0.316 µM, first compound 10 µM
[13] = second compound 1 µM, first compound 0.0316 µM
[14] = second compound 1 µM, first compound 0.1 µM
[15] = second compound 1 µM, first compound 0.316 µM
[16] = second compound 1 µM, first compound 1 µM
[17] = second compound 1 µM, first compound 3.16 µM
[18] = second compound 1 µM, first compound 10 µM
[19] = second compound 3.16 µM, first compound 0.0316 µM
[20] = second compound 3.16 µM, first compound 0.1 µM
[21] = second compound 3.16 µM, first compound 0.316 µM
[22] = second compound 3.16 µM, first compound 1 µM
[23] = second compound 10 µM, first compound 0.0316 µM
[24] = second compound 10 µM, first compound 0.1 µM
[25] = second compound 10 µM, first compound 0.316 µM
[26] = second compound 10 µM, first compound 1 µM
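Further: spheroids exposed to compounds for 7 days.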

SMILES | IC50 (second compound 0.1 µM) [nM] | IC50 (second compound 0.316 µM) [nM] | IC50 (second compound 1 µM) [nM] | viability, T/C [1] [%] | viability, T/C [2] [%] | viability, T/C [3] [%] | viability, T/C [4] [%] | viability, T/C [5] [%] | viability, T/C [6] [%] | viability, T/C [7] [%] | viability, T/C [8] [%] | viability, T/C [9] [%] | viability, T/C [10] [%] | viability, T/C [11] [%] | viability, T/C [12] [%] | viability, T/C [13] [%] | viability, T/C [14] [%] | viability, T/C [15] [%] | viability, T/C [16] [%] | viability, T/C [17] [%] | also measured
C=CCn1c(=O)c2cnc(Nc3ccc(N4CCN(C)CC4)cc3)nc2n1-c1cccc(C(C)(C)O)n1 + CCN1CCN(Cc2ccc(Nc3ncc(F)c(-c4cc(F)c5nc(C)n(C(C)C)c5c4)n3)nc2)CC1 | < 31.6 | < 31.6 | < 31.6 | 38.4 | 30 | 13.3 | 7 | 6.21 | 5.25 | 23.6 | 20.2 | 14.4 | 10 | 7.67 | 6.46 | 17.9 | 15.5 | 11.4 | 9.92 | 6.96 | IC50 (second compound 0.01 µM): 164 nM; IC50 (second compound 0.0316 µM): 101 nM; viability, T/C (second compound 0.01 µM, first compound 0.0316 µM): 78.5%; viability, T/C (second compound 0.01 µM, first compound 0.1 µM): 76.4%; viability, T/C (second compound 0.01 µM, first compound 0.316 µM): 15.1%; viability, T/C (second compound 0.01 µM, first compound 1 µM): 5.22%; viability, T/C (second compound 0.01 µM, first compound 3.16 µM): 4.65%; viability, T/C (second compound 0.01 µM, first compound 10 µM): 5.36%; viability, T/C (second compound 0.0316 µM, first compound 0.0316 µM): 65.1%; viability, T/C (second compound 0.0316 µM, first compound 0.1 µM): 50.2%; viability, T/C (second compound 0.0316 µM, first compound 0.316 µM): 13.4%; viability, T/C (second compound 0.0316 µM, first compound 1 µM): 6.17%; viability, T/C (second compound 0.0316 µM, first compound 3.16 µM): 4.95%; viability, T/C (second compound 0.0316 µM, first compound 10 µM): 4.75%; viability, T/C [18]: 5.12%
COc1c(OCCCN2CCOCC2)ccc2c3n(c(=NC(=O)c4cnc(N)nc4)nc12)CCN3 + CC(C)NCC(C(=O)N1CCN(c2ncnc3c2C(C)CC3O)CC1)c1ccc(Cl)cc1 | 3.97 | < 3.16 | < 3.16 | 9.62 | 5.79 | 5.45 | 5.99 | – | – | 8.11 | 6.04 | 5.28 | 5.13 | – | – | 7.4 | 5.13 | 5.24 | 4.6 | – | IC50 (second compound 3.16 µM): < 3.16 nM; IC50 (second compound 10 µM): < 3.16 nM; viability, T/C (second compound 0.1 µM, first compound 0.00316 µM): 55.1%; viability, T/C (second compound 0.1 µM, first compound 0.01 µM): 29.2%; viability, T/C (second compound 0.316 µM, first compound 0.00316 µM): 35%; viability, T/C (second compound 0.316 µM, first compound 0.01 µM): 21.2%; viability, T/C (second compound 1 µM, first compound 0.00316 µM): 16.6%; viability, T/C (second compound 1 µM, first compound 0.01 µM): 9.17%; viability, T/C (second compound 3.16 µM, first compound 0.00316 µM): 9.24%; viability, T/C (second compound 3.16 µM, first compound 0.01 µM): 8.35%; viability, T/C [19]: 6.17%; viability, T/C [20]: 4.91%; viability, T/C [21]: 4.85%; viability, T/C [22]: 4.78%; viability, T/C (second compound 10 µM, first compound 0.00316 µM): 6.46%; viability, T/C (second compound 10 µM, first compound 0.01 µM): 6.12%; viability, T/C [23]: 5.32%; viability, T/C [24]: 4.15%; viability, T/C [25]: 4.39%; viability, T/C [26]: 4.49%
CC1(C)CCC(CN2CCN(c3ccc(C(=O)NS(=O)(=O)c4ccc(NCC5CCOCC5)c([N+](=O)[O-])c4)c(Oc4cnc5[nH]ccc5c4)c3)CC2)=C(c2ccc(Cl)cc2)C1 + CC(C)NCC(C(=O)N1CCN(c2ncnc3c2C(C)CC3O)CC1)c1ccc(Cl)cc1 | 3820 | 326 | < 31.6 | 99.2 | 96.5 | 97.8 | 78 | 60.6 | 7.06 | 64.7 | 49.4 | 50.6 | 40.1 | 31.4 | 5.53 | 30 | 29.5 | 27.3 | 20.4 | 16 | IC50 (second compound 3.16 µM): < 31.6 nM; IC50 (second compound 10 µM): < 31.6 nM; viability, T/C [18]: 4.15%; viability, T/C [19]: 13.3%; viability, T/C [20]: 13%; viability, T/C [21]: 11.5%; viability, T/C [22]: 12.3%; viability, T/C (second compound 3.16 µM, first compound 3.16 µM): 8.4%; viability, T/C (second compound 3.16 µM, first compound 10 µM): 3.13%; viability, T/C [23]: 8.33%; viability, T/C [24]: 8.41%; viability, T/C [25]: 8.13%; viability, T/C [26]: 7.39%; viability, T/C (second compound 10 µM, first compound 3.16 µM): 5.52%; viability, T/C (second compound 10 µM, first compound 10 µM): 2.19%

Reference: PubChem BioAssay AID2060340 (Molecular Pharmacology Branch, DTP, NCI, 2025)
